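48-hour exposure; five concentrations; linearly interpolated endpoints. At the GI50, growth is halved.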 Active and inactive are the calls of the source. No stated cut-off is given here; in the data, active = GI50 up to about 1.1 µM and inactive = higher.
How the values were obtained:
Assay in all cases: NCI tumour cell line growth inhibition, 48 h
A498 = system: A498
SNB-75 = system: SNB-75
Malme-3M = system: Malme-3M
MDA-MB-231 = system: MDA-MB-231
NCI-H23 = system: NCI-H23
MDA-MB-435 = system: MDA-MB-435
IGROV-1 = system: IGROV-1
HCT-116 = system: HCT-116
786-0 = system: 786-0
TK-10 = system: TK-10
MOLT-4 = system: MOLT-4
SK-MEL-2 = system: SK-MEL-2
OVCAR-4 = system: OVCAR-4
SK-OV-3 = system: SK-OV-3
NCI-H460 = system: NCI-H460
HCC 2998 = system: HCC 2998
OVCAR-8 = system: OVCAR-8
UACC-257 = system: UACC-257
MCF7 = system: MCF7
UO-31 = system: UO-31
HOP-92 = system: HOP-92
K562 = system: K562
SF-539 = system: SF-539
M14 = system: M14
SF-295 = system: SF-295
SW-620 = system: SW-620
CAKI-1 = system: CAKI-1
OVCAR-5 = system: OVCAR-5
BT-549 = system: BT-549
Hs-578T = system: Hs-578T
HCT-15 = system: HCT-15
SN12C = system: SN12C
RPMI-8226 = system: RPMI-8226
SK-MEL-28 = system: SK-MEL-28
OVCAR-3 = system: OVCAR-3
COLO 205 = system: COLO 205
ACHN = system: ACHN
U-251 = system: U-251
NCI-H226 = system: NCI-H226
A549 = system: A549
EKVX = system: EKVX
PC-3 = system: PC-3
SNB-19 = system: SNB-19
NCI-H522 = system: NCI-H522
HL-60 = system: HL-60
SK-MEL-5 = system: SK-MEL-5
T47D = system: T47D
LOX IMVI = system: LOX IMVI
DU-145 = system: DU-145
SF-268 = system: SF-268
CCRF-CEM = system: CCRF-CEM
HT-29 = system: HT-29
UACC-62 = system: UACC-62
KM12 = system: KM12
NCI/ADR-RES = system: NCI/ADR-RES

Measured: GI50

O=C1C[C@@H](c2ccc(O)cc2)[C@@]2(O1)C(=O)O[C@H]([C@@H](O)CO)[C@@H]2O
inactive: A498 > 100 µM | SNB-75 > 100 µM | Malme-3M > 100 µM | MDA-MB-231 > 100 µM | NCI-H23 > 100 µM | MDA-MB-435 > 100 µM | IGROV-1 > 100 µM | HCT-116 > 100 µM | 786-0 > 100 µM | TK-10 > 100 µM | MOLT-4 > 100 µM | SK-MEL-2 > 100 µM | OVCAR-4 > 100 µM | SK-OV-3 > 100 µM | NCI-H460 > 100 µM | HCC 2998 > 100 µM | OVCAR-8 > 100 µM | UACC-257 > 100 µM | MCF7 > 100 µM | UO-31 > 100 µM | HOP-92 > 100 µM | K562 > 100 µM | SF-539 > 100 µM | M14 > 100 µM | SF-295 > 100 µM | SW-620 > 100 µM | CAKI-1 > 100 µM | OVCAR-5 > 100 µM | BT-549 > 100 µM | Hs-578T > 100 µM | SN12C > 100 µM | RPMI-8226 > 100 µM | SK-MEL-28 > 100 µM | OVCAR-3 > 100 µM | COLO 205 > 100 µM | ACHN > 100 µM | U-251 > 100 µM | NCI-H226 > 100 µM | A549 > 100 µM | EKVX > 100 µM | PC-3 > 100 µM | SNB-19 > 100 µM | NCI-H522 > 100 µM | HL-60 > 100 µM | SK-MEL-5 > 100 µM | T47D > 100 µM | LOX IMVI > 100 µM | DU-145 > 100 µM | SF-268 > 100 µM | CCRF-CEM > 100 µM | HT-29 > 100 µM | UACC-62 > 100 µM | KM12 > 100 µM | NCI/ADR-RES > 100 µM
> 100 µM: HCT-15
